Experimental findings from US11753407B2, “Compounds for treating spinal muscular atrophy” (PTC Therapeutics, Inc., priority 2012, dated 2023) are described below.

Series [1] deals with Smn protein in SMA patient fibroblast cells (GM03813). Put plainly: Smn protein assay in cultured cells (SMN HTRF). The class given is cell-based, human. To be noted: SMA patient fibroblast cells, 48 hours; for EC1.5x for Smn protein expression: 7-point concentration curve, SMN HTRF, concentration producing 1.5 times Smn protein vs DMSO vehicle control; for maximum fold (Fold) increase of Smn protein: 7-point concentration data, fold relative to vehicle control. In short, it runs like this:
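Patient-derived SMA fibroblasts are plated, given compound for 48 h, then lysed in RIPA buffer with protease inhibitors. Lysate Smn is detected by an anti-SMN d2/kryptate HTRF pair incubated overnight. The normalized ΔF is divided by the vehicle ΔF to give fold change, from which EC1.5× and maximum fold are taken.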
On the technique in general: In TR-FRET formats the signal depends on donor and acceptor labels being close together.

For series [2], the system named is SMN2 minigene mRNA (SMN2-A minigene) in HEK293H cells. Put plainly: SMN2 minigene mRNA splicing RT-qPCR assay in cultured cells. It counts as cell-based, human. The settings on record: Homo sapiens, HEK293-H; concentration increasing full length SMN2 mRNA 1.5-fold relative to vehicle-treated cells; HEK293H cells with SMN2-A minigene, 24 hours, 7-point concentration data; read-out: EC1.5x for production of full length SMN2 mRNA. In short, it runs like this: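 Cells are seeded, left to attach 4-6 h, then dosed with test compound across seven concentrations and incubated 24 h. Lysates undergo RT-qPCR with primers/probe specific to the exon 7-containing minigene transcript, co-amplified with GAPDH. Fold change over vehicle is calculated, and EC1.5× marks the 1.5-fold point.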
On the technique in general: Real-time PCR tracks product formation cycle by cycle.

The term melting point denotes the temperature of the solid-liquid transition. As for `Cc1cn2nc(-c3cc(=O)n4cc(N5CCC(C)(NCCO)CC5)ccc4n3)cc2c(C)n1` [Compound 709, 2-(4,6-dimethylpyrazolo[1,5-a]pyrazin-2-yl)-7-{4-[(2-hydroxyethyl)amino]-4-methylpiperidin-1-yl}-4H-pyrido[1,2-a]pyrimidin-4-one], the melting point lay in the range of 196 to 198 °C. Moreover, in series [1], the “EC1.5x for Smn protein expression” value is given as “**** (an EC1.5x≤0.3 μM is indicated by four stars (****))” and the “maximum fold (Fold) increase of Smn protein” value (“maximum fold (Fold) increase” for short) is reported as “***** (a fold increase >1.65 is indicated by five stars (*****))”. Besides, the EC (1.5-fold increase) in series [2] was under 0.1 µM.
`COc1ccc(-c2cc(=O)n3cc(N4CCNCC4)ccc3n2)cc1C(F)(F)F` [Compound 67, 2-[4-methoxy-3-(trifluoromethyl)phenyl]-7-(piperazin-1-yl)-4H-pyrido[1,2-a]pyrimidin-4-one]: the melting point was 177 to 181 °C. Also, in series [1], the “EC1.5x for Smn protein expression” value is “*** (an EC1.5× between >0.3 μM and ≤1 μM is indicated by three stars (***))”; the “maximum fold (Fold) increase” value was “*** (a fold increase between >1.35 and ≤1.5 is indicated by three stars (***))”. Besides, the EC (1.5-fold increase) in series [2] is 0.1 to 0.3 µM.
For the molecule `Cc1cn2nc(-c3cc(=O)n4cc(N5CCCN(C)CC5)ccc4n3)cc2c(C)n1` [Compound 334, 2-(4,6-dimethylpyrazolo[1,5-a]pyrazin-2-yl)-7-(4-methyl-1,4-diazepan-1-yl)-4H-pyrido[1,2-a]pyrimidin-4-one], the melting point was in the range of 169 to 171 °C. In series [1], the “EC1.5x for Smn protein expression” value is given as “**** (an EC1.5x≤0.3 μM is indicated by four stars (****))” and the “maximum fold (Fold) increase” value was “***** (a fold increase >1.65 is indicated by five stars (*****))”. Moreover, in series [2], the EC (1.5-fold increase) was under 0.1 µM.
The molecule `COc1ccc(-c2cc(=O)n3cc(N4CC[C@H](N)C4)ccc3n2)cc1F` [Compound 224, 7-[(3S)-3-aminopyrrolidin-1-yl]-2-(3-fluoro-4-methoxyphenyl)-4H-pyrido[1,2-a]pyrimidin-4-one] came in with a melting point of 193 to 198 °C. For the same molecule, in series [1], the “EC1.5x for Smn protein expression” value was “*** (an EC1.5× between >0.3 μM and ≤1 μM is indicated by three stars (***))”; the “maximum fold (Fold) increase” value was “**** (a fold increase between >1.5 and ≤1.65 is indicated by four stars (****))”. Moreover, the EC (1.5-fold increase) in series [2] is 0.3 to 1 µM.
The molecule `COc1ccc(-c2cc(=O)n3cc(N4CCNCC4)ccc3c2C#N)cc1OC` [Cpd 85, 2-(3,4-dimethoxyphenyl)-4-oxo-7-(piperazin-1-yl)-4H-quinolizine-1-carbonitrile] gave a melting point of 199 to 202 °C. Moreover, in series [1], the “EC1.5x for Smn protein expression” value is “* (An EC1.5× for Smn protein expression between >3 μM and ≤10 μM is indicated by one star (*))”; the “maximum fold (Fold) increase” value was “*** (a fold increase between >1.35 and ≤1.5 is indicated by three stars (***))”. In addition, the EC (1.5-fold increase) in series [2] was in the range of 1 to 3 µM.
As to `Cc1cc2cc(-c3cc(=O)n4cc(N5CCNCC5)ccc4n3)oc2c(C)n1` [Cpd 486, 2-(5,7-dimethylfuro[2,3-c]pyridin-2-yl)-7-(piperazin-1-yl)-4H-pyrido[1,2-a]pyrimidin-4-one], the melting point was in the range of 198 to 200 °C. For the same molecule, in series [1], the “EC1.5x for Smn protein expression” value is “**** (an EC1.5x≤0.3 μM is indicated by four stars (****))”; the “maximum fold (Fold) increase” value was “**** (a fold increase between >1.5 and ≤1.65 is indicated by four stars (****))”. Besides, the EC (1.5-fold increase) in series [2] is under 0.1 µM.
In turn, `Cc1nc2cc(-c3cc(=O)n4cc(N5CCNCC5)ccc4n3)ccc2o1` [Compound 155, 2-(2-methyl-1,3-benzoxazol-5-yl)-7-(piperazin-1-yl)-4H-pyrido[1,2-a]pyrimidin-4-one] showed a melting point of 178 to 183 °C. Moreover, the “maximum fold (Fold) increase” value in series [1] is “** (a fold increase between >1.2 and ≤1.35 is indicated by two stars (**))”. For the same molecule, the EC (1.5-fold increase) in series [2] lay within 0.1 to 0.3 µM.
The molecule `CCCN1CC=C(c2ccc3nc(-c4ccc(OC)c(OC)c4)cc(=O)n3c2)CC1` [Compound 365, 2-(3,4-dimethoxyphenyl)-7-(1-propyl-1,2,3,6-tetrahydropyridin-4-yl)-4H-pyrido[1,2-a]pyrimidin-4-one] came in with a melting point of 158 to 160 °C. Also, the “maximum fold (Fold) increase” value in series [1] is “*** (a fold increase between >1.35 and ≤1.5 is indicated by three stars (***))”. The EC (1.5-fold increase) in series [2] fell in the range of 0.1 to 0.3 µM.
`Cc1cn2cc(-c3cc(=O)n4cc(N5CC[C@H](N(C)C)C5)ccc4n3)cc(F)c2n1` [Compound 275, 7-[(3S)-3-(dimethylamino)pyrrolidin-1-yl]-2-(8-fluoro-2-methylimidazo[1,2-a]pyridin-6-yl)-4H-pyrido[1,2-a]pyrimidin-4-one] came in with a melting point of 294 to 297 °C. Further, in series [1], the “EC1.5x for Smn protein expression” value is “**** (an EC1.5x≤0.3 μM is indicated by four stars (****))” and the “maximum fold (Fold) increase” value is given as “***** (a fold increase >1.65 is indicated by five stars (*****))”. For the same molecule, the EC (1.5-fold increase) in series [2] was under 0.1 µM.
As to `Cc1nc2c(F)cc(-c3cc(=O)n4cc(N5CCNCC5)ccc4n3)cc2o1` [Compound 305, 2-(4-fluoro-2-methyl-1,3-benzoxazol-6-yl)-7-(piperazin-1-yl)-4H-pyrido[1,2-a]pyrimidin-4-one], the melting point lay in the range of 184 to 186 °C. For the same molecule, in series [1], the “EC1.5x for Smn protein expression” value was “**** (an EC1.5x≤0.3 μM is indicated by four stars (****))” and the “maximum fold (Fold) increase” value is recorded as “***** (a fold increase >1.65 is indicated by five stars (*****))”. In addition, in series [2], the EC (1.5-fold increase) is under 0.1 µM.
For the molecule `COc1ccc(-c2cc(=O)n3cc(N4CCC(N)CC4)ccc3n2)cc1F` [Compound 207, 7-(4-aminopiperidin-1-yl)-2-(3-fluoro-4-methoxyphenyl)-4H-pyrido[1,2-a]pyrimidin-4-one], the melting point was in the range of 173 to 179 °C. Besides, the “maximum fold (Fold) increase” value in series [1] is “*** (a fold increase between >1.35 and ≤1.5 is indicated by three stars (***))”. The EC (1.5-fold increase) in series [2] was under 0.1 µM.
`Cc1nc2ccc(-c3cc(=O)n4cc(N5CCN[C@H](C)C5)ccc4n3)cc2o1` [Compound 193, 2-(2-methyl-1,3-benzoxazol-6-yl)-7-[(3R)-3-methylpiperazin-1-yl]-4H-pyrido[1,2-a]pyrimidin-4-one] registered a melting point of 175 to 177 °C. For the same molecule, in series [1], the “EC1.5x for Smn protein expression” value was “**** (an EC1.5x≤0.3 μM is indicated by four stars (****))” and the “maximum fold (Fold) increase” value is recorded as “***** (a fold increase >1.65 is indicated by five stars (*****))”. Also, the EC (1.5-fold increase) in series [2] is under 0.1 µM.
`COc1ccc(-c2cc(=O)n3cc(N4C[C@H]5CNC[C@H]5C4)cc(C)c3n2)cc1OC` [Compound 257, 2-(3,4-dimethoxyphenyl)-7-[(3aR,6aS)-hexahydropyrrolo[3,4-c]pyrrol-2(1H)-yl]-9-methyl-4H-pyrido[1,2-a]pyrimidin-4-one] registered a melting point of 215 °C. Further, in series [1], the “EC1.5x for Smn protein expression” value is “** (an EC1.5× between >1 μM and ≤3 μM is indicated by two stars (**))”; the “maximum fold (Fold) increase” value was “**** (a fold increase between >1.5 and ≤1.65 is indicated by four stars (****))”. Further, the EC (1.5-fold increase) in series [2] is under 0.1 µM.
Turning to `Cc1cn2nc(-c3cc(=O)n4cc(C5=CCN(C6CCC6)CC5)ccc4n3)cc2c(C)n1` [Compound 356, 7-(1-cyclobutyl-1,2,3,6-tetrahydropyridin-4-yl)-2-(4,6-dimethylpyrazolo[1,5-a]pyrazin-2-yl)-4H-pyrido[1,2-a]pyrimidin-4-one], the melting point lay within 191 to 193 °C. Also, in series [1], the “EC1.5x for Smn protein expression” value is “*** (an EC1.5× between >0.3 μM and ≤1 μM is indicated by three stars (***))”; the “maximum fold (Fold) increase” value is “**** (a fold increase between >1.5 and ≤1.65 is indicated by four stars (****))”. In addition, the EC (1.5-fold increase) in series [2] was under 0.1 µM.
`COc1c(-c2cc(=O)n3cc(N4CCNCC4)ccc3n2)cccc1C(F)(F)F` [Compound 78, 2-[2-methoxy-3-(trifluoromethyl)phenyl]-7-(piperazin-1-yl)-4H-pyrido[1,2-a]pyrimidin-4-one]: the melting point is 194 to 200 °C. Besides, the “maximum fold (Fold) increase” value in series [1] is “* (A maximum fold increase of ≤1.2 is indicated by one star (*))”. Further, in series [2], the EC (1.5-fold increase) lay in the range of 1 to 3 µM.
Molecule `Cc1cn2nc(-c3cc(=O)n4cc(C5CCN(C6COC6)CC5)ccc4n3)cc2c(C)n1` [Compound 600, 2-(4,6-dimethylpyrazolo[1,5-a]pyrazin-2-yl)-7-[1-(oxetan-3-yl)piperidin-4-yl]-4H-pyrido[1,2-a]pyrimidin-4-one] showed a melting point of 150 to 152 °C. In series [1], the “EC1.5x for Smn protein expression” value is “** (an EC1.5× between >1 μM and ≤3 μM is indicated by two stars (**))”; the “maximum fold (Fold) increase” value was “**** (a fold increase between >1.5 and ≤1.65 is indicated by four stars (****))”. Further, the EC (1.5-fold increase) in series [2] fell in the range of 0.1 to 0.3 µM.
With `CCc1nc(C)cn2nc(-c3cc(=O)n4cc(N5CCC(N(CC)CC)CC5)ccc4n3)cc12` [Compound 551, 7-[4-(diethylamino)piperidin-1-yl]-2-(4-ethyl-6-methylpyrazolo[1,5-a]pyrazin-2-yl)-4H-pyrido[1,2-a]pyrimidin-4-one], the melting point lay within 232 to 235 °C. In series [1], the “EC1.5x for Smn protein expression” value is on record as “**** (an EC1.5x≤0.3 μM is indicated by four stars (****))” and the “maximum fold (Fold) increase” value was “***** (a fold increase >1.65 is indicated by five stars (*****))”. In series [2], the EC (1.5-fold increase) lay in the range of 0.1 to 0.3 µM.
